Results from patent US20140249135A1, “PIM KINASE INHIBITORS AND METHODS OF THEIR USE” (NOVARTIS AG, priority 2007, published 2014).
Like-named read-outs stand apart in the source and are kept apart here.

Experiments:
Format in all cases: biochemical
[1] = target: Pim1 kinase (Homo sapiens, UniProt P11309); experiment: Pim1 ATP depletion assay;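 also: Luciferase-luciferin luminescence readout of residual ATP after PIM1 transfers phosphate to a peptide substrate, 40 µM ATP added, reaction run to roughly half ATP consumption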
[2] = target: Pim2 kinase (Homo sapiens, UniProt Q9P1W9); experiment: Pim2 ATP depletion assay; conditions: read-out: PIM2 IC50;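 also: Luciferase-based luminescent readout of ATP remaining after PIM2 phosphorylates a BAD peptide, final 5 nM enzyme, 4 µM ATP, 10 µM peptide, 2.5% DMSO, run to roughly half ATP consumption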
[3] = target: Pim3 kinase (Homo sapiens, UniProt Q86V86); experiment: Pim3 ATP depletion assay; conditions: read-out: PIM3 IC50
[4] = Pim1 ATP depletion assay, read-out: PIM1 IC50

Measured: IC50

Sequence of Pim1 kinase (P11309 whole entry): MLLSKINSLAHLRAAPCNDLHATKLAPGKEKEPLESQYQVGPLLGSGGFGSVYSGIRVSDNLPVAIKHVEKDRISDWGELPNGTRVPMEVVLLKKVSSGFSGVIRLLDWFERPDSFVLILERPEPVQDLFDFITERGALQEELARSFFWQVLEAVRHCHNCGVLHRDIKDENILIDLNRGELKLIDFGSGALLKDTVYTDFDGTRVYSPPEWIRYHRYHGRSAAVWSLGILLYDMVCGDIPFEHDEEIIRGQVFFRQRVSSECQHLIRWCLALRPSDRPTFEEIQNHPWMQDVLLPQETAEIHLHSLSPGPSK
Sequence of Pim2 kinase (Q9P1W9 whole entry): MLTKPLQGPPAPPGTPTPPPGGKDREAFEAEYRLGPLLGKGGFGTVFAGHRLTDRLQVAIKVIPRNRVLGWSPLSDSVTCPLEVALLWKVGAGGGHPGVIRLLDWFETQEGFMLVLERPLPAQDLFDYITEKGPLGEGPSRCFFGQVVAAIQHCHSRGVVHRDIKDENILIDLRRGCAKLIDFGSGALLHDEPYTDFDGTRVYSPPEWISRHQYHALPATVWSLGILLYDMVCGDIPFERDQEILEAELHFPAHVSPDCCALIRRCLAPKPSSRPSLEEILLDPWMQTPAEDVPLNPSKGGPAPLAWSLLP

COc1nc(-c2ccc(N)c(C(=O)Nc3cnccc3N3CCC[C@H](N)C3)n2)ccc1N [Example 705, 5,5′-Diamino-6′-methoxy-[2,2′]bipyridinyl-6-carboxylic acid (3-amino-3,4,5,6-tetra-hydro-2H-[1,4′]bipyridinyl-3′-yl)-amide]
< 1000 nM: [1]; [4] | [2] | [3]

CC(=O)c1cccc(-c2ccc(N)c(C(=O)Nc3cnccc3N3CCC[C@H](N)C3)n2)n1 [Example 706, 6′-Acetyl-5-amino-[2,2′]bi-pyridinyl-6-carboxylic acid (3-amino-3,4,5,6-tetrahydro-2H-[1,4′]bipyridinyl-3′-yl)-amide]
< 1000 nM: [1]; [4] | [2] | [3]

Cc1ccnc(-c2ccc(N)c(C(=O)Nc3cnccc3N3CCC[C@H](N)C3)n2)c1F [Example 707, 5-Amino-3′-fluoro-4′-methyl-[2,2′]bipyridinyl-6-carboxylic acid (3-amino-3,4,5,6-tetra-hydro-2H-[1,4′]bipyridinyl-3′-yl)-amide]
< 1000 nM: [1]; [4] | [2] | [3]

Cc1nc(-c2ccc(N)c(C(=O)Nc3cnccc3N3CCC[C@H](N)C3)n2)ccc1F [Example 708, 5-Amino-5′-fluoro-6′-methyl-[2,2′]bipyridinyl-6-carboxylic acid (3-amino-3,4,5,6-tetra-hydro-2H-[1,4′]bipyridinyl-3′-yl)-amide]
< 1000 nM: [1]; [4] | [2] | [3]

Cc1ccc(F)c(-c2ccc(N)c(C(=O)Nc3cnccc3N3CCC[C@H](N)C3)n2)n1 [Example 709, 5-Amino-3′-fluoro-6′-methyl-[2,2′]bipyridinyl-6-carboxylic acid (3-amino-3,4,5,6-tetra-hydro-2H-[1,4′]bipyridinyl-3′-yl)-amide]
< 1000 nM: [1]; [4] | [2] | [3]

Nc1ccc(-c2cccc(Cl)n2)nc1C(=O)Nc1cnccc1N1CCC[C@H](N)C1 [Example 710, 5-Amino-6′-chloro-[2,2′]bi-pyridinyl-6-carboxylic acid (3-amino-3,4,5,6-tetrahydro-2H-[1,4′]bipyridinyl-3′-yl)-amide]
< 1000 nM: [1]; [4] | [2] | [3]

Nc1cccc(-c2ccc(N)c(C(=O)Nc3cnccc3N3CCC[C@H](N)C3)n2)n1 [Example 711, 5,6′-Diamino-[2,2′]bipyridinyl-6-carboxylic acid (3-amino-3,4,5,6-tetrahydro-2H-[1,4′]bi-pyridinyl-3′-yl)-amide]
< 1000 nM: [1]; [4] | [2] | [3]

Nc1ccc(-c2cccc(F)n2)nc1C(=O)Nc1cnccc1N1CCC[C@H](N)C1 [Example 712, 5-Amino-6′-fluoro-[2,2′]bi-pyridinyl-6-carboxylic acid (3-amino-3,4,5,6-tetrahydro-2H-[1,4′]bipyridinyl-3′-yl)-amide]
< 1000 nM: [1]; [4] | [2] | [3]

Nc1ccc(-c2ccc(Cl)cn2)nc1C(=O)Nc1cnccc1N1CCC[C@H](N)C1 [Example 713, 5-Amino-5′-chloro-[2,2′]bi-pyridinyl-6-carboxylic acid (3-amino-3,4,5,6-tetrahydro-2H-[1,4′]bipyridinyl-3′-yl)-amide]
< 1000 nM: [1]; [4] | [2] | [3]

Nc1ccc(-c2ccc(C(F)(F)F)cn2)nc1C(=O)Nc1cnccc1N1CCC[C@H](N)C1 [Example 714, 5-Amino-5′-trifluoromethyl-[2,2′]bipyridinyl-6-carboxylic acid (3-amino-3,4,5,6-tetra-hydro-2H-[1,4′]bipyridinyl-3′-yl)-amide]
< 1000 nM: [1]; [4] | [2] | [3]

Nc1ccc(-c2cc(C(F)(F)F)ccn2)nc1C(=O)Nc1cnccc1N1CCC[C@H](N)C1 [Example 715, 5-Amino-4′-trifluoromethyl-[2,2′]bipyridinyl-6-carboxylic acid (3-amino-3,4,5,6-tetra-hydro-2H-[1,4′]bipyridinyl-3′-yl)-amide]
< 1000 nM: [1]; [4] | [2] | [3]

Nc1ccc(-c2ncccc2N)nc1C(=O)Nc1cnccc1N1CCC[C@H](N)C1 [Example 716, 5,3′-Diamino-[2,2′]bipyridinyl-6-carboxylic acid (3-amino-3,4,5,6-tetrahydro-2H-[1,4′]bi-pyridinyl-3′-yl)-amide]
< 1000 nM: [1]; [4] | [2] | [3]

CCc1ccnc(-c2ccc(N)c(C(=O)Nc3cnccc3N3CCC[C@H](N)C3)n2)c1 [Example 717, 5-Amino-4′-ethyl-[2,2′]bi-pyridinyl-6-carboxylic acid (3-amino-3,4,5,6-tetrahydro-2H-[1,4′]bipyridinyl-3′-yl)-amide]
< 1000 nM: [1]; [4] | [2] | [3]

Nc1ccc(-c2cccc(C(F)(F)F)n2)nc1C(=O)Nc1cnccc1N1CCC[C@H](N)C1 [Example 718, 5-Amino-6′-trifluoromethyl-[2,2′]bipyridinyl-6-carboxylic acid (3-amino-3,4,5,6-tetra-hydro-2H-[1,4′]bipyridinyl-3′-yl)-amide]
< 1000 nM: [1]; [4] | [2] | [3]

Nc1ccc(-c2ncccc2Cl)nc1C(=O)Nc1cnccc1N1CCC[C@H](N)C1 [Example 719, 5-Amino-3′-chloro-[2,2′]bi-pyridinyl-6-carboxylic acid (3-amino-3,4,5,6-tetrahydro-2H-[1,4′]bipyridinyl-3′-yl)-amide]
< 1000 nM: [1]; [4] | [2] | [3]

Nc1ccc(-c2ncc(C(F)(F)F)cc2Cl)nc1C(=O)Nc1cnccc1N1CCC[C@H](N)C1 [Example 720, 5-Amino-3′-chloro-5′-trifluoro-methyl-[2,2′]bipyridinyl-6-carboxylic acid (3-amino-3,4,5,6-tetrahydro-2H-[1,4′]bi-pyridinyl-3′-yl)-amide]
< 1000 nM: [1]; [4] | [2] | [3]

Nc1ccc(-c2ncccc2C(F)(F)F)nc1C(=O)Nc1cnccc1N1CCC[C@H](N)C1 [Example 721, 5-Amino-3′-trifluoromethyl-[2,2′]bipyridinyl-6-carboxylic acid (3-amino-3,4,5,6-tetra-hydro-2H-[1,4′]bipyridinyl-3′-yl)-amide]
< 1000 nM: [1]; [4] | [2] | [3]

COc1cncc(-c2ccc(N)c(C(=O)Nc3cnccc3N3CCC[C@H](N)C3)n2)n1 [Example 722, 3-Amino-6-(6-methoxy-pyrazin-2-yl)-pyridine-2-carboxylic acid (3-amino-3,4,5,6-tetrahydro-2H-[1,4′]bipyridinyl-3′-yl)-amide]
< 1000 nM: [1]; [4] | [2] | [3]

CCOc1cccc(-c2ccc(N)c(C(=O)Nc3cnccc3N3CCC[C@H](N)C3)n2)n1 [Example 723, 5-Amino-6′-ethoxy-[2,2′]bi-pyridinyl-6-carboxylic acid (3-amino-3,4,5,6-tetrahydro-2H-[1,4′]bipyridinyl-3′-yl)-amide]
< 1000 nM: [1]; [4] | [2] | [3]

Cc1ccnc(-c2ccc(N)c(C(=O)Nc3cnccc3N3CCC[C@H](N)C3)n2)c1 [Example 724, 5-Amino-4′-methyl-[2,2′]bi-pyridinyl-6-carboxylic acid (3-amino-3,4,5,6-tetrahydro-2H-[1,4′]bipyridinyl-3′-yl)-amide]
< 1000 nM: [1]; [4] | [2] | [3]

Cc1ccc(-c2ccc(N)c(C(=O)Nc3cnccc3N3CCC[C@H](N)C3)n2)nc1 [Example 725, 5-Amino-5′-methyl-[2,2′]bi-pyridinyl-6-carboxylic acid (3-amino-3,4,5,6-tetrahydro-2H-[1,4′]bipyridinyl-3′-yl)-amide]
< 1000 nM: [1]; [4] | [2] | [3]

Cc1cccc(-c2ccc(N)c(C(=O)Nc3cnccc3N3CCC[C@H](N)C3)n2)n1 [Example 726, 5-Amino-6′-methyl-[2,2′]bi-pyridinyl-6-carboxylic acid (3-amino-3,4,5,6-tetrahydro-2H-[1,4′]bipyridinyl-3′-yl)-amide]
< 1000 nM: [1]; [4] | [2] | [3]

Nc1ccc(-c2ccc(F)cn2)nc1C(=O)Nc1cnccc1N1CCC[C@H](N)C1 [Example 727, 5-Amino-5′-fluoro-[2,2′]bi-pyridinyl-6-carboxylic acid (3-amino-3,4,5,6-tetrahydro-2H-[1,4′]bipyridinyl-3′-yl)-amide]
< 1000 nM: [1]; [4] | [2] | [3]

Nc1nccc(-c2ccc(N)c(C(=O)Nc3cnccc3N3CCC[C@H](N)C3)n2)n1 [Example 728, 3-Amino-6-(2-amino-pyrimidin-4-yl)-pyridine-2-carboxylic acid (3-amino-3,4,5,6-tetrahydro-2H-[1,4′]bipyridinyl-3′-yl)-amide]
< 1000 nM: [1] | [2] | [3]

Nc1cnc(-c2ccc(N)c(C(=O)Nc3cnccc3N3CCC[C@H](N)C3)n2)cn1 [Example 729, 3-Amino-6-(5-amino-pyrazin-2-yl)-pyridine-2-carboxylic acid (3-amino-3,4,5,6-tetrahydro-2H-[1,4′]bipyridinyl-3′-yl)-amide]
< 1000 nM: [1]; [4] | [2] | [3]
